Consider one compound from US8653089B2, “Heterocyclic compounds and methods of use” (F. Hoffmann-La Roche AG, priority 2011, dated 2014).

Each structure is given as a SMILES string.

The target of one experiment is T1, p110 delta (Homo sapiens, UniProt O00329).
T1 construct: purchased Upstate Group, Millipore; Dundee, UK
Nature of the experiment: PI3K isoform inhibition assay (fluorescence polarization), p110 delta. Conditions: p110 delta binding IC50, selected compounds from Table 1. The class given is biochemical. Here is the method: PI3K enzymatic activity was assayed by measuring the amount of product phosphatidylinositol 3,4,5-phosphate (PIP3) formed from substrate 4,5 phosphatidylinositol 4,5-phosphate (PIP2) using a fluorescence polarization displacement assay. The decrease in fluorescence polarization of a fluorescent PIP3 probe is measured as it is displaced from a PIP3-binding protein GRP-1detector by PI3K-catalyzed product. Assays were conducted in 384-well black Proxiplates in the presence of 10 mM Tris (pH 7.5), 50 mM NaCl, 4 mM MgCl2, 5% glycerol, 25 μM ATP, 10 μM PIP2 (Echelon Biosciences), 0.05% 3-[(3-cholamidopropyl)dimethylammonio]-1-propanesulfonate, 1 mM dithiothreitol, and 2% DMSO. The kinase reactions were initiated by the addition of 40 ng/mL p110α/p85α, 300 ng/mL p110β/p85α, 40 ng/mL p110γ, or 40 ng/mL p110δ/p85α (Upstate Group, Millipore; Dundee, UK), and 10 μM PIP2 (Echelon Biosciences) to the wells. The reactions were stopped at timepoints that yielded a fixed change in fluorescence polarization consistent with initial rate conditions (typically 30 minutes), by the addition of 12.5 mM EDTA, 100 nM GRP-1 detector, and 5 nM tetramethylrhodamine-labeled PIP3 (TAMRA-PIP3; Echelon Biosciences). After 60 minutes of incubation at room temperature to allow equilibration of labeled and unlabeled PIP3 binding, the parallel and perpendicular components of the fluorescence emissions from each sample were measured at an excitation wavelength of 530 nm and an emission wavelength of 590 nm using an Envision fluorescent plate reader with a rhodamine filter (PerkinElmer Life and Analytical Sciences; Wellesley, Mass.). The assay is capable of detecting 0.1-2.0 μM PIP3 product. The IC50 values were obtained by fitting the dose-dependent inhibition data to a 4-parameter equation using Assay Explorer software (MDL, San Ramon, Calif.). […]
(§1) Recombinant PI3K p110 isoforms alpha, beta, and delta may be prepared and purified according to US 2008/0275067 from recombinant PI3K heterodimeric complexes consisting of a p110 catalytic subunit and a p85 regulatory subunit overexpressed using the BAC-TO-BAC® HT baculovirus expression system (GIBCO/BRL), and then purified for use in biochemical assays. The four Class I PI 3-kinases are cloned into baculovirus vectors as follows:
p110 delta: A FLAG™-tagged (Eastman Kodak Co., U.S. Pat. No. 4,703,004; U.S. Pat. No. 4,782,137; U.S. Pat. No. 4,851,341) version of human p110.delta (Chantry et al., J. Biol. Chem. (1997) 272:19236-41) is subcloned using standard recombinant DNA techniques into the BamHI-XbaI site of the insect cell expression vector pFastbac HTb (Life Technologies, Gaithersburg, Md.), such that the clone is in frame with the His tag of the vector.

A further experiment deals with T2, p110 alpha (Homo sapiens, UniProt P42336).
T2 construct: purchased Upstate Group, Millipore; Dundee, UK
As to the kind of experiment: PI3K isoform inhibition assay, p110 alpha (delta/alpha selectivity). Type of experiment: biochemical. The settings on record: delta/alpha selectivity ratio. Here is the method:
PI3K enzymatic activity was assayed by measuring the amount of product phosphatidylinositol 3,4,5-phosphate (PIP3) formed from substrate 4,5 phosphatidylinositol 4,5-phosphate (PIP2) using a fluorescence polarization displacement assay. The decrease in fluorescence polarization of a fluorescent PIP3 probe is measured as it is displaced from a PIP3-binding protein GRP-1detector by PI3K-catalyzed product. Assays were conducted in 384-well black Proxiplates in the presence of 10 mM Tris (pH 7.5), 50 mM NaCl, 4 mM MgCl2, 5% glycerol, 25 μM ATP, 10 μM PIP2 (Echelon Biosciences), 0.05% 3-[(3-cholamidopropyl)dimethylammonio]-1-propanesulfonate, 1 mM dithiothreitol, and 2% DMSO. The kinase reactions were initiated by the addition of 40 ng/mL p110α/p85α, 300 ng/mL p110β/p85α, 40 ng/mL p110γ, or 40 ng/mL p110δ/p85α (Upstate Group, Millipore; Dundee, UK), and 10 μM PIP2 (Echelon Biosciences) to the wells. The reactions were stopped at timepoints that yielded a fixed change in fluorescence polarization consistent with initial rate conditions (typically 30 minutes), by the addition of 12.5 mM EDTA, 100 nM GRP-1 detector, and 5 nM tetramethylrhodamine-labeled PIP3 (TAMRA-PIP3; Echelon Biosciences). After 60 minutes of incubation at room temperature to allow equilibration of labeled and unlabeled PIP3 binding, the parallel and perpendicular components of the fluorescence emissions from each sample were measured at an excitation wavelength of 530 nm and an emission wavelength of 590 nm using an Envision fluorescent plate reader with a rhodamine filter (PerkinElmer Life and Analytical Sciences; Wellesley, Mass.). The assay is capable of detecting 0.1-2.0 μM PIP3 product. The IC50 values were obtained by fitting the dose-dependent inhibition data to a 4-parameter equation using Assay Explorer software (MDL, San Ramon, Calif.).
Alternatively, inhibition of PI3K was determined in a radiometric assay using purified, recombinant enzyme and ATP at a concentration of 1 uM. The Formula I compound was serially diluted in 100% DMSO. The kinase reaction was incubated for 1 h at room temperature, and the reaction was terminated by the addition of PBS. IC50 values were subsequently determined using sigmoidal dose-response curve fit (variable slope).
The same protocol may be used to establish IC50 values for p110α (alpha) PI3K binding.
as §1
p110 alpha: Similar to the method used for p110 delta, described above, a FLAG™-tagged version of p110 alpha (Volinia et al (1994) Genomics, 24(3):427-77) was subcloned in BamH1-HindIII sites of pFastbac HTb (Life Technologies) such that the clone was in frame with the His tag of the vector.

Experiment [1] relates to CD69 expression on CD20 positive cells in human whole blood stimulated by anti-IgM. As to the kind of experiment: CD69 Whole Blood Assay. The class given is cell-based. Conditions: concentration decreasing by 50% the percent CD69 positive cells that are also CD20 positive, 20 hours. The text has this:
Human blood is obtained from healthy volunteers, with the following restrictions: 1 week drug-free, non-smokers. Blood (approximately 20 mls to test 8 compounds) is collected by venipuncture into Vacutainer tubes with sodium heparin.
Cynomolgus monkey blood is obtained courtesy of the LAT group from monkeys not previously exposed to, or after a washout period from, chemical dosing. Additional cyno blood draws may be collected during the course of pharmacokinetic or toxicology studies. Blood (25-30 mls for naïve monkeys or 3-4 mls from monkeys on studies requiring repeated draws) is collected by venipuncture into Vacutainer tubes with sodium heparin.
Solutions of Formula I compounds at 1000 or 2000 μM in PBS (20×), are diluted by three-fold serial dilutions in 10% DMSO in PBS for a nine point dose-response curve. An aliquot of 5.5 μl of each compound is added in duplicate to a 2 ml 96-well plate; 5.5 μl of 10% DMSO in PBS is added as control and no-stimulus wells. Human whole blood—HWB (100 μl) is added to each well. After mixing the plates are incubated at 37° C., 5% CO2, 100% humidity for 30 minutes. Goat F(ab′)2 anti-human IgM (10 μl of a 500 μg/ml solution, 50 μg/ml final) is added to each well (except the no-stimulus wells) with mixing and the plates are incubated for an additional 20 hours. At the end of the 20 hour incubation, samples are incubated with fluorescent labeled antibodies for 30 minutes, at 37° C., 5% CO2, 100% humidity. Include induced control, unstained and single stains for compensation adjustments and initial voltage settings. Samples are then lysed with Pharmingen Lyse according to the manufacturer's instructions. Samples are then transferred to a 96 well plate suitable to be run on the AMS 96 well system on the BD Calibur FACs machine. Data acquired and Mean Fluorescence Intensity values were obtained using Cell Quest Software. Results are initially analyzed by FACS analysis software (Flow Jo). […] The […] values are calculated by ActivityBase using Xlfit version 3, equation 201.

T2 sequence (P42336 whole entry): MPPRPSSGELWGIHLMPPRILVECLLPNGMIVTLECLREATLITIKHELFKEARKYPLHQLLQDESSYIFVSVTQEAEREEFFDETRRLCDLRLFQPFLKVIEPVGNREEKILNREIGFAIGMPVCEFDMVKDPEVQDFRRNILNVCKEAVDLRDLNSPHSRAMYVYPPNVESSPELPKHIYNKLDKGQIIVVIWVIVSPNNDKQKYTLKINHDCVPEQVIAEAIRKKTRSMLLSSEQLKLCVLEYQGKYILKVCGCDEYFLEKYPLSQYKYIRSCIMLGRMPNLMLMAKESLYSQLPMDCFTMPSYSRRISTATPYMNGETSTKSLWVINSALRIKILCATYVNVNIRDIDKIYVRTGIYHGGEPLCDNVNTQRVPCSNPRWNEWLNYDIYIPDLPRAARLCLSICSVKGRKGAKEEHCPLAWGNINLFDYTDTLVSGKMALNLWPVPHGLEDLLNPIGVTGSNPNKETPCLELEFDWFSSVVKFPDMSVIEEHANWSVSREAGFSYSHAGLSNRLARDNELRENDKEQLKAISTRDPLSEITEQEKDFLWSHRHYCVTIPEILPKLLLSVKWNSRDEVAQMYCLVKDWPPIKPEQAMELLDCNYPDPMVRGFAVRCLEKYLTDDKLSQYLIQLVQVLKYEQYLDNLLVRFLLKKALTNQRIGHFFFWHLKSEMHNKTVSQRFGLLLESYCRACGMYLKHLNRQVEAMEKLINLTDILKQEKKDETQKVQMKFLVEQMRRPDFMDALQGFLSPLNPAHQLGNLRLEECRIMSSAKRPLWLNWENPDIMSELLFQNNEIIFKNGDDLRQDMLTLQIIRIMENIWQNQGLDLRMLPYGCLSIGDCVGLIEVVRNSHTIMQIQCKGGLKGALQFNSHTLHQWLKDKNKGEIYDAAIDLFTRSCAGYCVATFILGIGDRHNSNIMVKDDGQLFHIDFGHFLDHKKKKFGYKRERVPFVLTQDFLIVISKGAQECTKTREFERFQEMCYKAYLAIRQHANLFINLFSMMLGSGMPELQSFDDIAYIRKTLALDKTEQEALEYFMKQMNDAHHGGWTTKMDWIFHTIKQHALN
T2 sequence (P27986 whole entry partner): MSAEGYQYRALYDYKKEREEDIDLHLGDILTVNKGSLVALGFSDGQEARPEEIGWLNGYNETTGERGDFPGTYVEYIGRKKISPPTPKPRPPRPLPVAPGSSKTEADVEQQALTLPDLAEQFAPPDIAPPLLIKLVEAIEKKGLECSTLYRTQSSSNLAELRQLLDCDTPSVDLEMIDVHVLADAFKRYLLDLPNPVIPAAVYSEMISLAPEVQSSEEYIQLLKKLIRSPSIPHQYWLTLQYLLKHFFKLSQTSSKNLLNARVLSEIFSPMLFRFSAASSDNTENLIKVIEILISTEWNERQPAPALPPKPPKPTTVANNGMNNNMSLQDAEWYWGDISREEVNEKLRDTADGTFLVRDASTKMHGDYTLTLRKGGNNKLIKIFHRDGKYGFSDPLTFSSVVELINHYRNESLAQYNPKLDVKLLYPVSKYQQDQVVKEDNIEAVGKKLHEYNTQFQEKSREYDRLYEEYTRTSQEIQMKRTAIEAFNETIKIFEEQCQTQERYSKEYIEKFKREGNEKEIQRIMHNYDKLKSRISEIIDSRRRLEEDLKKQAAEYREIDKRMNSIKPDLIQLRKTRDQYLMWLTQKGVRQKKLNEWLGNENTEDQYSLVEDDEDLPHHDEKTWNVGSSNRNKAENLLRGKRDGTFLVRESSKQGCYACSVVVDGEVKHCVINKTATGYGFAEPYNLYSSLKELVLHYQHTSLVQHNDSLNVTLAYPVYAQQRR
T1 sequence (O00329 whole entry): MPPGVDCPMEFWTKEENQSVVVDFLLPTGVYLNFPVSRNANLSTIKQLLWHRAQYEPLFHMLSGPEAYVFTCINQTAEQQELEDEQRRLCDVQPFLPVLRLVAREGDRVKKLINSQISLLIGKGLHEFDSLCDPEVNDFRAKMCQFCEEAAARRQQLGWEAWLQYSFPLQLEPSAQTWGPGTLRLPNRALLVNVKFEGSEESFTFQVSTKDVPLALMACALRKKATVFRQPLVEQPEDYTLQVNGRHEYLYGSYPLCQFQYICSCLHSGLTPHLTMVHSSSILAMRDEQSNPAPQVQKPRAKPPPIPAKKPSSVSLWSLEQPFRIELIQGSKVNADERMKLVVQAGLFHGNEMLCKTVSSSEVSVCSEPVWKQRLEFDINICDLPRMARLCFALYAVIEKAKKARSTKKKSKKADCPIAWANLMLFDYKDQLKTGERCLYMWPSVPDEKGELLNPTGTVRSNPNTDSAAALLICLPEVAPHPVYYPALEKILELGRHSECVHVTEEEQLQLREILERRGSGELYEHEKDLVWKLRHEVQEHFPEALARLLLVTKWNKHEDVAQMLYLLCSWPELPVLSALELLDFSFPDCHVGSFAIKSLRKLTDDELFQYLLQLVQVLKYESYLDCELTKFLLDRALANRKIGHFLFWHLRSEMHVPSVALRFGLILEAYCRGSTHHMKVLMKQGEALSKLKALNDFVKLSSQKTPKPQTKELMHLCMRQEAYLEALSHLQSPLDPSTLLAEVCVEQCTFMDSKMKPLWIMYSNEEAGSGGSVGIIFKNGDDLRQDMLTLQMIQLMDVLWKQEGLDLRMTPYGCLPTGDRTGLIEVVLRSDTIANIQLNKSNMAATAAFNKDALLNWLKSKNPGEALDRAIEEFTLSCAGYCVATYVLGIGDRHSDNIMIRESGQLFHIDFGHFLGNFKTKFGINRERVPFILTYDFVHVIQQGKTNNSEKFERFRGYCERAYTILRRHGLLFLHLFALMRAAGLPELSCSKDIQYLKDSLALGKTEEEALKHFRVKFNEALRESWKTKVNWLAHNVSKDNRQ
T1 sequence (P27986 whole entry partner): as the sequence (P27986 whole entry partner) above

As a reminder, the IC50 is the concentration that gives 50% inhibition. Regarding `C[C@H](Nc1ncnc2[nH]cnc12)c1nc2ccc(F)cc2n1-c1ccccc1` [Example 123, (S)—N-(1-(6-fluoro-1-phenyl-1H-benzo[d]imidazol-2-yl)ethyl)-9H-purin-6-amine], the IC50 on p110 delta is 0.000854 µM; in experiment [1] it was 0.0291 µM. For the same compound, at p110 alpha, the “IC50 p110 alpha/IC50 p110 delta (greater than or equal to, ≧)” value is given as ≥ 2459.
